In patent publication US12122763B2, “Substituted piperidines for androgen receptor degradation” (UBIX THERAPEUTICS, INC., priority 2020, dated 2024):

Molecular target: T1, Androgen Receptor (AR) protein (Homo sapiens, UniProt P10275, T878A)
T1 construct: endogenous in cells; host or cells: LNCaP
Experiment: Androgen Receptor (AR) protein degradation assay in LNCaP cells, western blotting
Format: cell-based
Details: 20 h; for inhibition at 0.01 µM: 0.01 μM compound; for inhibition at 0.1 µM: 0.1 μM compound; for inhibition at 1 µM: 1 μM compound; for inhibition at 10 µM: 10 μM compound
Method in brief: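 LNCaP prostate cancer cells were cultured 3 days, then treated with compound for 20 h. Lysates in 1% SDS buffer were normalised by BCA, and 8 μg protein was run on 4–12% Bis-Tris gels. AR was immunoblotted with chemiluminescence, using GAPDH/β-actin as loading controls.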

T1 sequence (P10275 whole entry T878A): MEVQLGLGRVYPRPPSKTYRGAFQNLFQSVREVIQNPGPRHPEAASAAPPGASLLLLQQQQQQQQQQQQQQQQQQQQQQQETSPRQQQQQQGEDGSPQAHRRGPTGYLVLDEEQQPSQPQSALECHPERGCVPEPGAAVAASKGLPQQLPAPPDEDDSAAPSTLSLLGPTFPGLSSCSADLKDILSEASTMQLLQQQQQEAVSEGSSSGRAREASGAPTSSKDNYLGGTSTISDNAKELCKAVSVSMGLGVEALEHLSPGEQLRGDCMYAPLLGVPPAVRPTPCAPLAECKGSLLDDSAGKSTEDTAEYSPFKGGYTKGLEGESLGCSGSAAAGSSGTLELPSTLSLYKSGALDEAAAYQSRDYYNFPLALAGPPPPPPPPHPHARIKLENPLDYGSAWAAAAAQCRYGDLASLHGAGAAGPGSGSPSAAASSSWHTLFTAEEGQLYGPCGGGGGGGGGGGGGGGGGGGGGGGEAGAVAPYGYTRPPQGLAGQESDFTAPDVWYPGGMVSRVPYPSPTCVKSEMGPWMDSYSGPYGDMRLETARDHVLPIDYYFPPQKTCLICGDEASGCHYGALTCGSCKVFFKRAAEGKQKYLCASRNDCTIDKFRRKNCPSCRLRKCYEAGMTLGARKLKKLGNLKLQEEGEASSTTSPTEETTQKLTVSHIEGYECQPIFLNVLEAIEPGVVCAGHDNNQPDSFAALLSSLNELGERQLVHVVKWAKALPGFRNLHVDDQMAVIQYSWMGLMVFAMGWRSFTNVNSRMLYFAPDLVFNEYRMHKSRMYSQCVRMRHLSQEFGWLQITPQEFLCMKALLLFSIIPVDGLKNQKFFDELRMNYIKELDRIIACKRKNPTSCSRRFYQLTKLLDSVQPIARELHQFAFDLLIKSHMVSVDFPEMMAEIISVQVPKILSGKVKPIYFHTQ
T1 sequence (Q96SW2 whole entry partner): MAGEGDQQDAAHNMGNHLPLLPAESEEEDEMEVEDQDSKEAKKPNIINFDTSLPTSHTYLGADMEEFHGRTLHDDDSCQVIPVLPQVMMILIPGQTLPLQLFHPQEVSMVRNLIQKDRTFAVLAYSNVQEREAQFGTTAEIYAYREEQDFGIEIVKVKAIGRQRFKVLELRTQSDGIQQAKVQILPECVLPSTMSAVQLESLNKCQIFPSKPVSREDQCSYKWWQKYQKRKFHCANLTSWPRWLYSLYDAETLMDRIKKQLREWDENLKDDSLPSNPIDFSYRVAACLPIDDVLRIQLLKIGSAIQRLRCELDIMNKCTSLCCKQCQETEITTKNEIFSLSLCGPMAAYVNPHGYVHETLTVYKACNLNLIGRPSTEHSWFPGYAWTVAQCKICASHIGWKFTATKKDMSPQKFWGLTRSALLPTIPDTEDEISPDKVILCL

| SMILES | inhibition at 0.01 µM [%] | inhibition at 0.1 µM [%] | inhibition at 1 µM [%] | inhibition at 10 µM [%] |
| --- | --- | --- | --- | --- |
| N#Cc1ccc(N2CCC(C(=O)Nc3ccc(N4CCC(CN5CC6(CCN(c7ccc8nnn(C9CCC(=O)NC9=O)c(=O)c8c7)CC6)C5)CC4)cn3)CC2)cc1C(F)(F)F (stereo not shown) [Example 53, 1-(4-cyano-3-(trifluoromethyl)phenyl)-N-(5-(4-((7-(3-(2,6-dioxopiperidin-3-yl)-4-oxo-3,4-dihydrobenzo[d][1,2,3]triazin-6-yl)-2,7-diazaspiro[3.5]nonan-2-yl)methyl)piperidin-1-yl)pyridin-2-yl)piperidine-4-carboxamide] | 27 | 89 | 93 |  |
| N#Cc1ccc(N2CCC(F)(C(=O)Nc3ccc(N4CCC(CN5CC6(CCN(c7ccc8c(c7)C(=O)N(C7CCC(=O)NC7=O)C8=O)CC6)C5)CC4)cn3)CC2)cc1C(F)(F)F (stereo not shown) [Example 54, 1-(4-cyano-3-(trifluoromethyl)phenyl)-N-(5-(4-((7-(2-(2,6-dioxopiperidin-3-yl)-1,3-dioxoisoindolin-5-yl)-2,7-diazaspiro[3.5]nonan-2-yl)methyl)piperidin-1-yl)pyridin-2-yl)-4-fluoropiperidine-4-carboxamide] | 60 | 95 | 98 |  |
| N#Cc1ccc(N2CCC(O)(C(=O)Nc3ccc(N4CCC(CN5CC6(CCN(c7ccc8c(c7)C(=O)N(C7CCC(=O)NC7=O)C8=O)CC6)C5)CC4)cn3)CC2)cc1C(F)(F)F (stereo not shown) [Example 55, 1-(4-cyano-3-(trifluoromethyl)phenyl)-N-(5-(4-((7-(2-(2,6-dioxopiperidin-3-yl)-1,3-dioxoisoindolin-5-yl)-2,7-diazaspiro[3.5]nonan-2-yl)methyl)piperidin-1-yl)pyridin-2-yl)-4-hydroxypiperidine-4-carboxamide] | 34 | 69 | 95 |  |
| N#Cc1ccc(N2CCC(CC(=O)Nc3ccc(N4CCC(CN5CC6(CCN(c7ccc8c(c7)C(=O)N(C7CCC(=O)NC7=O)C8=O)CC6)C5)CC4)cn3)C2)cc1C(F)(F)F (stereo not shown) [Example 56, 2-(1-(4-cyano-3-(trifluoromethyl)phenyl)pyrrolidin-3-yl)-N-(5-(4-((7-(2-(2,6-dioxopiperidin-3-yl)-1,3-dioxoisoindolin-5-yl)-2,7-diazaspiro[3.5]nonan-2-yl)methyl)piperidin-1-yl)pyridin-2-yl)acetamide] | -8 | 87 | 95 |  |
| N#Cc1ncc(N2CCC(C(=O)Nc3ccc(N4CCC(CN5CC6(CCN(c7ccc8c(c7)C(=O)N(C7CCC(=O)NC7=O)C8=O)CC6)C5)CC4)cn3)CC2)cc1C(F)(F)F (stereo not shown) [Example 57, 1-(6-cyano-5-(trifluoromethyl)pyridin-3-yl)-N-(5-(4-((7-(2-(2,6-dioxopiperidin-3-yl)-1,3-dioxoisoindolin-5-yl)-2,7-diazaspiro[3.5]nonan-2-yl)methyl)piperidin-1-yl)pyridin-2-yl)piperidine-4-carboxamide] | 43 | 85 | 96 |  |
| N#Cc1ncc(N2CCC(F)(C(=O)Nc3ccc(N4CCC(CN5CC6(CCN(c7ccc8c(c7)C(=O)N(C7CCC(=O)NC7=O)C8=O)CC6)C5)CC4)cn3)CC2)cc1C(F)(F)F (stereo not shown) [Example 58, 1-(6-cyano-5-(trifluoromethyl)pyridin-3-yl)-N-(5-(4-((7-(2-(2,6-dioxopiperidin-3-yl)-1,3-dioxoisoindolin-5-yl)-2,7-diazaspiro[3.5]nonan-2-yl)methyl)piperidin-1-yl)pyridin-2-yl)-4-fluoropiperidine-4-carboxamide] | 16 | 41 | 77 |  |
| N#Cc1ccc(N2CCC(C(=O)Nc3ccc(N4CCC(CN5CC6(CCN(c7ccc8c(c7)C(=O)N(C7CCC(=O)NC7=O)C8=O)CC6)C5)CC4)nc3)CC2)cc1C(F)(F)F (stereo not shown) [Example 59, 1-(4-cyano-3-(trifluoromethyl)phenyl)-N-(6-(4-((7-(2-(2,6-dioxopiperidin-3-yl)-1,3-dioxoisoindolin-5-yl)-2,7-diazaspiro[3.5]nonan-2-yl)methyl)piperidin-1-yl)pyridin-3-yl)piperidine-4-carboxamide] | 9 | 32 | 47 | 68 |
| N#Cc1ccc(N2CCC(C(=O)Nc3ccc(N4CCC(CN5CC6(CCN(c7ccc8c(c7)C(=O)N(C7CCC(=O)NC7=O)C8=O)CC6)C5)CC4)nc3)CC2)cc1Cl (stereo not shown) [Example 60, 1-(3-chloro-4-cyanophenyl)-N-(6-(4-((7-(2-(2,6-dioxopiperidin-3-yl)-1,3-dioxoisoindolin-5-yl)-2,7-diazaspiro[3.5]nonan-2-yl)methyl)piperidin-1-yl)pyridin-3-yl)piperidine-4-carboxamide] | 16 | 32 | 32 | 66 |
| N#Cc1ccc(N2CCC(C(=O)Nc3ccc(N4CC[C@@H](CN5CC6(CCN(c7ccc8c(c7)C(=O)N(C7CCC(=O)NC7=O)C8=O)CC6)C5)C4)cn3)CC2)cc1C(F)(F)F (stereo partly drawn) [Example 61, 1-(4-cyano-3-(trifluoromethyl)phenyl)-N-(5-((3S)-3-((7-(2-(2,6-dioxopiperidin-3-yl)-1,3-dioxoisoindolin-5-yl)-2,7-diazaspiro[3.5]nonan-2-yl)methyl)pyrrolidin-1-yl)pyridin-2-yl)piperidine-4-carboxamide] | 57 | 94.5 | 97.5 | 96 |
| N#Cc1ccc(N2CCC(C(=O)Nc3ccc(N4CC[C@H](CN5CC6(CCN(c7ccc8c(c7)C(=O)N(C7CCC(=O)NC7=O)C8=O)CC6)C5)C4)cn3)CC2)cc1C(F)(F)F (stereo partly drawn) [Example 62, 1-(4-cyano-3-(trifluoromethyl)phenyl)-N-(5-((3R)-3-((7-(2-(2,6-dioxopiperidin-3-yl)-1,3-dioxoisoindolin-5-yl)-2,7-diazaspiro[3.5]nonan-2-yl)methyl)pyrrolidin-1-yl)pyridin-2-yl)piperidine-4-carboxamide] | 69 | 95 | 96 | 87.5 |
| N#Cc1ccc(N2CCC(C(=O)Nc3ccc(N4CCC(CN5CCC6(CC5)CN(c5ccc7c(c5)C(=O)N(C5CCC(=O)NC5=O)C7=O)C6)CC4)cn3)CC2)cc1C(F)(F)F (stereo not shown) [Example 63, 1-(4-cyano-3-(trifluoromethyl)phenyl)-N-(5-(4-((2-(2-(2,6-dioxopiperidin-3-yl)-1,3-dioxoisoindolin-5-yl)-2,7-diazaspiro[3.5]nonan-7-yl)methyl)piperidin-1-yl)pyridin-2-yl)piperidine-4-carboxamide] | 45 | 94 | 98.5 | 94.5 |
| N#Cc1ccc(N2CCC(C(=O)Nc3ccc(N4CCC(CN5CCC6(CC5)CN(c5ccc7c(c5)C(=O)N(C5CCC(=O)NC5=O)C7=O)C6)CC4)cn3)CC2)cc1Cl (stereo not shown) [Example 64, 1-(3-chloro-4-cyanophenyl)-N-(5-(4-((2-(2-(2,6-dioxopiperidin-3-yl)-1,3-dioxoisoindolin-5-yl)-2,7-diazaspiro[3.5]nonan-7-yl)methyl)piperidin-1-yl)pyridin-2-yl)piperidine-4-carboxamide] | 71.5 | 97 | 98.5 | 98.5 |
| COc1ccc(C(=O)N2CC3(CCN(CC4CCN(c5ccc(NC(=O)C6CCN(c7ccc(C#N)c(C(F)(F)F)c7)CC6)nc5)CC4)CC3)C2)cc1N1CCC(=O)NC1=O [Example 65, 1-(4-cyano-3-(trifluoromethyl)phenyl)-N-(5-(4-((2-(3-(2,4-dioxotetrahydropyrimidin-1(2H)-yl)-4-methoxybenzoyl)-2,7-diazaspiro[3.5]nonan-7-yl)methyl)piperidin-1-yl)pyridin-2-yl)piperidine-4-carboxamide] | 55 | 80 | 82 | 63 |
| N#Cc1ccc(N2CCC(C(=O)Nc3ccc(N4CCC(CN5CC6(C5)CN(c5ccc7c(c5)C(=O)N(C5CCC(=O)NC5=O)C7=O)C6)CC4)cn3)CC2)cc1C(F)(F)F (stereo not shown) [Example 66, 1-(4-cyano-3-(trifluoromethyl)phenyl)-N-(5-(4-((6-(2-(2,6-dioxopiperidin-3-yl)-1,3-dioxoisoindolin-5-yl)-2,6-diazaspiro[3.3]heptan-2-yl)methyl)piperidin-1-yl)pyridin-2-yl)piperidine-4-carboxamide] | 75.5 | 95.5 | 97 | 94 |
| N#Cc1ccc(N2CCC(C(=O)Nc3ccc(N4CCC(CN5CC6(C5)CN(c5ccc7c(c5)C(=O)N(C5CCC(=O)NC5=O)C7=O)C6)CC4)cn3)CC2)cc1Cl (stereo not shown) [Example 67, 1-(3-chloro-4-cyanophenyl)-N-(5-(4-((6-(2-(2,6-dioxopiperidin-3-yl)-1,3-dioxoisoindolin-5-yl)-2,6-diazaspiro[3.3]heptan-2-yl)methyl)piperidin-1-yl)pyridin-2-yl)piperidine-4-carboxamide] | 46 | 90 | 88 | 86 |
| N#Cc1ccc(N2CCC(C(=O)Nc3ccc(N4CCC(CN5CCC6(CC5)CCN(c5ccc7c(c5)C(=O)N(C5CCC(=O)NC5=O)C7=O)CC6)CC4)cn3)CC2)cc1C(F)(F)F (stereo not shown) [Example 68, 1-(4-cyano-3-(trifluoromethyl)phenyl)-N-(5-(4-((9-(2-(2,6-dioxopiperidin-3-yl)-1,3-dioxoisoindolin-5-yl)-3,9-diazaspiro[5.5]undecan-3-yl)methyl)piperidin-1-yl)pyridin-2-yl)piperidine-4-carboxamide] | 66 | 91 | 90 | 85 |
